Test results reported in patent US20090104145A1, “Mixtures of Anthranilamide Invertebrate Pest Control Agents” (priority 2004, published 2009).

Test system: diamondback moth (Plutella xylostella)
Test: whole plant or invertebrate
Assay type: in vivo
Description: The pest control protection afforded by the mixtures or compositions is not limited, however, to these species. The analysis of synergism or antagonism between the mixtures or compositions was determined using Colby's equation. The average % mortality data for the test compounds alone were inserted into the Colby's equation. If the observed average % mortality was higher than “p”, the expected % mortality, the mixture or composition had synergistic effects. If the observed average % mortality was equal to or lower than the expected mortality, the mixture or composition either had no synergistic effect or an antagonistic effect. In these tests, Compound 1 is the compound of Formula 1.
For evaluating control of diamondback moth (Plutella xylostella), cabbage (var. Stonehead) plants were grown in Metromix potting soil in 10-cm pots in aluminum trays to test size (28 days, 3-4 full leaves) the plants were sprayed to the point of runoff using the turntable sprayer as described in Test I. Test compounds were formulated and sprayed on test plants as described for Test I. After drying for 2 hours, the treated leaves were excised and infested with one cabbage looper per cell and covered. The test units were placed on trays and put in a growth chamber at 25° C. and 60% relative humidity for 4 days.

## CNC(=O)c1cc(C#N)cc(C)c1NC(=O)c1cc(Br)nn1-c1ncccc1Cl [Compound 1, 3-bromo-N-[4-cyano-2-methyl-6-[(methylamino)carbonyl]phenyl]-1-(3-chloro-2-pyridinyl)-1H-pyrazole-5-carboxamide]
Plutella xylostella, in Brassica oleracea, rate 0.005 ppm, read-out: % mortality (obs)
  mortality at 0.005 ppm: 86%
Plutella xylostella, in Brassica oleracea, rate 0.02 ppm, read-out: % mortality (obs)
  mortality at 0.02 ppm: 87%
Plutella xylostella, in Brassica oleracea, rate 0.08 ppm, read-out: % mortality (obs)
  mortality at 0.08 ppm: 94%
Rate 0.02
  % mortality: 83%
Rate 0.08
  % mortality: 90%
